# Experiments:
# [1] = biological target: T1, E3 ubiquitin-ligase Hakai (Mus musculus, UniProt Q9JIY2); experiment: Hakai-dependent ubiquitination assay in 293T cells transfected with Flag-Hakai, v-Src and HA-ubiquitin; type: cell-based; settings: 293T cells transfected with Src, treated 36 h
# T1 construct: expressed in transfected cells; host or cells: HEK293T (293) cells, co-transfected with v-Src and HA-ubiquitin, and in A3 also with myc-E-cadherin
# T1 sequence (Q9JIY2 1-491): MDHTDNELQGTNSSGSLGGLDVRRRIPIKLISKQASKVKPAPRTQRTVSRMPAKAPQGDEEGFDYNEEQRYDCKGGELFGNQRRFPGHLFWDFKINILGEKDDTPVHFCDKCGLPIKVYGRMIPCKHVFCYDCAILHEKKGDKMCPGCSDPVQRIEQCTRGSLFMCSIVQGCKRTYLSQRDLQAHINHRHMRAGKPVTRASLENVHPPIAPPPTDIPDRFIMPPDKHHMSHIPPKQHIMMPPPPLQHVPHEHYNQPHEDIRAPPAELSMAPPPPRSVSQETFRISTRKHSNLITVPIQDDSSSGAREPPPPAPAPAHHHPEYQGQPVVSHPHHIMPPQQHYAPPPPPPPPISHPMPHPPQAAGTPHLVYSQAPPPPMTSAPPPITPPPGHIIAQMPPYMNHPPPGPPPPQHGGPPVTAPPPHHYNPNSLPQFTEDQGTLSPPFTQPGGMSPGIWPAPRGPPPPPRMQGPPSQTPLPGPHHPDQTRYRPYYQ
# Protocol: For ubiquitination assays, 750.000 HEK293T cells were seeded in 6-well cell culture plates and after 24 h were transfected with 0.25 μg Src, 0.75 μg Flag-Hakai, and 0.5 μg HA-ubiquitin with Lipofectamin 2000 (Invitrogen, UK). Six hours after transfection cells were treated with indicated concentrations of Hakin-1, Hakin-5 or the rest of the analogues tested for 36 h. Whole cell extracts were obtained in lysis buffer (20 mM Tris-HCl pH 7.5, 150 mM NaCl and 1% Triton X-100) containing 10 μg/ml leupeptin, 10 μg/ml aprotinin and 1 mM phenylmethanesulphonyl fluoride (PMSF), supplemented with 10 mM N-ethylmaleimide. Cells were harvested and subjected to western blotting using anti-HA antibody to detect ubiquitination.
# [2] = system: ubiquitination in 293T cells; experiment: Ubiquitination assay in 293T cells transfected with v-Src and HA-ubiquitin (Hakai not overexpressed); type: cell-based
# Protocol: Six hours after transfection cells were treated with indicated concentrations of Hakin-1, Hakin-5 or the rest of the analogues tested for 36 h. Whole cell extracts were obtained in lysis buffer (20 mM Tris-HCl pH 7.5, 150 mM NaCl and 1% Triton X-100) containing 10 μg/ml leupeptin, 10 μg/ml aprotinin and 1 mM phenylmethanesulphonyl fluoride (PMSF), supplemented with 10 mM N-ethylmaleimide. Cells were harvested and subjected to western blotting using anti-HA antibody to detect ubiquitination.
# [3] = system: normal epithelial MDCK cell line; experiment: MTT cell viability assay, MDCK; type: cell-based; settings: normal epithelial MDCK compared to Hakai-MDCK; 72 h
# Protocol: (§1) For cytotoxicity assays, 1×10^4 cells were seeded per well into a 96-well plate. After 24 h cells were treated with the indicated inhibitors for 72 h and a MTT colorimetric cell viability assay was performed following manufacturer's instructions (Sigma Aldrich, St Louis, Mo.). Absorbance was measured at 570 and 630 nm using a Multiskan Plus Reader (Nanoquant Infinite M200 Tecan Trading AG, Switzerland). Dose-response curves were designed with Graph Pad Prism Software and the half-maximal inhibitory concentration (IC50) values were calculated. Represented data are the mean±SEM of at least three independent experiments with six replicates per condition.
# [4] = system: Hakai-MDCK cell lines (clone 4 and clone 11); experiment: MTT cell viability assay, Hakai-MDCK; type: cell-based; settings: both clones of Hakai-MDCK compared to MDCK; 72 h
# Protocol: as §1
# [5] = system: Hakai-transformed MDCK cells; experiment: Phase-contrast cell phenotype, Hakai-MDCK; type: cell-based
# Protocol: MDCK, HEK293T, HepG2, MCF7 and ACHN cells were cultured in Dulbecco's Modified Eagles Medium (DMEM). MDCK stably expressing Hakai cells (Hakai-MDCK) were previously reported and were growth in DMEM with G418 (800 μg/ml). […] LoVo and PC-3 cells were cultured in F-12K Medium (Kaighn's Modification of Ham's F-12 Medium) and HT-29 cells in McCoy's 5a Medium Modified. 5637 cells were cultured in RPMI medium. All culture media were supplemented with 1% penicillin/streptomycin and 10% of heat-inactivated fetal bovine serum (FBS) at 37° C. in a humidified incubator with 5% CO2. Cells were monthly tested for mycoplasma contamination and used only for 1-3 months after defrosted. LoVo and HT29 cells were authenticated with the StemElite ID system (Promega). For phase-contrast images, culture cells were photographed with a Nikon Eclipse-TI microscope.
# LoVo cells [6] = experiment: BrdU proliferation assay, LoVo; type: cell-based; settings: 48 h
# Protocol: (§2) For BrdU assays, 1×10^4 of indicated cells were plated per well into a 96-well plate. After 24 h, cells were treated with the indicated inhibitors for 48 h. Three independent experiments were plated with six replicates per each condition. Cells were treated with […] BrdU for 2 h. BrdU incorporation into newly synthesized DNA was measured using a cell proliferation colorimetric immunoassay kit according to the manufacturer's instructions (Roche, Switzerland). Results are expressed as mean±S.D. Results are represented as percentage of positive cells (mean±S.D) of three independent experiments.
# [7] = system: non-transformed epithelial MDCK cells; experiment: BrdU proliferation assay, MDCK; type: cell-based; settings: 48 h
# Protocol: as §2
# [8] = system: bladder cancer 5637 cells; experiment: BrdU proliferation assay, 5637; type: cell-based, human; settings: 48 h
# Protocol: as §2
# LoVo cells [9] = experiment: Invasion assay, LoVo; type: cell-based; settings: treated 48 h before seeding
# Protocol: (§3) For invasion assays, cells were treated with Hakin-1 or DMSO as vehicle for 48 h using 1% FBS during the last 24 hours. 3×10^5 MDCK, MDCK-Hakai or LoVo cells were seeded in a cell invasion chamber (Cell invasion assaykit, Chemicon International) containing medium with 2% FBS. After 72 hours for MDCK and MDCK-Hakai Invasive and 16 h for LoVo cells, invasive cells invaded that reach the lower chamber containing 30% FBS were fixed and stained with crystal violet (Sigma Aldrich, St Louis, Mo.) following the manufacturer's specifications. For migration assays, HT29 cells were cultured with Hakin-1 or DMSO as vehicle for 48 h, using medium without serum the last 24 h. In the cell migration chamber were seeded 3×10^5 HT29 cells (Cell migration kit, Millipore, Bedford, Mass.) containing medium without serum. After 16 h, migrated cells in the lower chamber containing serum with 30% FBS were stained with crystal violet and counted following the manufacturer's specifications. For both invasion and migration assays cells were counted in five fields photographed with an Olympus microscope using a 20× objective, experiments were performed in triplicates for each condition and the assays were repeated at least three times. Results are expressed as mean±SD.
# HT29 cells = experiment: Migration assay, HT29; type: cell-based; settings: HT-29; treated 48 h
# Protocol: as §3
compound,measurement,setting,value
"O=C(O)c1ccc(-n2nnnc2SCC(=O)c2ccc([N+](=O)[O-])cc2)cc1 [Hakin-1, 4-(5-{[2-(4-nitrophenyl)-2-oxoethyl]thiol}-1H-tetrazol-1-yl)benzoic acid]",Hakai protein levels,[1],no effect was seen
same,"ubiquitination mediated by Hakai (western blotting, anti-HA)",[1]; DMSO as control,strongly reduces the ubiquitination mediated by Hakai in a doses dependent-manner
same,ubiquitination when Hakai was not overexpressed,[2],did not affect ubiquitination
same,"sensitivity to treatment (cell viability, MTT)",[3],more resistant
same,"sensitivity to treatment (cell viability, MTT)",[4],more sensitive
same,mesenchymal phenotype (phase contrast),[5],induction of an epithelial phenotype
same,cell proliferation (BrdU),LoVo cells [6],reduced cell proliferation
same,cell proliferation (BrdU),[7],no effect was detected
same,cell proliferation (BrdU),[8],inhibits cell proliferation
same,cell invasion,LoVo cells [9],strongly reduced cell invasion
same,cell migration,HT29 cells,important reduction of cell migration

# From patent US20220016080A1, “COMPOUNDS THAT SELECTIVELY AND EFFECTIVELY INHIBIT HAKAI-MEDIATED UBIQUITINATION, AS ANTI-CANCER DRUGS” (FUNDACIÓN PROFESOR NOVOA SANTOS, priority 2018, published 2022)
